# Source: patent US11944607B2, “Treatment of progressive neurodegenerative disease with ibudilast” (MediciNova, Inc., priority 2007, dated 2024)
# Several values for one entry are separate records, joined by “and”; a condition that tells them apart may be missing. Identical values can stand only once.
# Experiments:
# [1] = tested on: patients with multiple sclerosis; experiment: Phase II placebo-controlled, randomized, double-blind study: relapse and disability (EDSS) outcomes; assay type: in vivo, human
# Experimental: (§1) A Phase II placebo-controlled, randomized, double-blind study was conducted using ibudilast in patients with multiple sclerosis. During year 1, patients were treated with 0 mg tid (placebo), 10 mg tid or 20 mg tid of ibudilast; during year 2, patients on placebo were randomized to receive either 10 mg tid or 20 mg tid of ibudilast (patients on 10 mg tid or 20 mg tid during the first year of the study continued on that dose during the second year). A baseline MRI scan was taken two weeks prior to treatment. Brain volume changes were assessed on an annual basis with subsequent MRI scans. MRI scans were performed every two months of the 2-year period to assess changes in T1 and T2 lesions.
# [2] = tested on: patients with multiple sclerosis; experiment: Phase II clinical trial: brain volume loss by cranial MRI; assay type: in vivo, human
# Experimental: as §1
# [3] = tested on: animal model for progressive multiple sclerosis; experiment: Animal model for progressive multiple sclerosis; assay type: in vivo; details: progressive MS model; present-tense example without data
# [4] = tested on: patients with multiple sclerosis; experiment: Phase II clinical trial: double-blind MRI analysis of new lesion evolution to persistent black holes; assay type: in vivo, human; details: for Mean Proportion of Lesions Evolving to PBH / Median Proportion of Lesions Evolving to PBH: new lesions at month 2, PBH at month 10
# Source text: The study is the result of randomized, double-blind, placebo-controlled analysis of year 1 MRI data with MN-166 administration. MRIs were collected bimonthly during the one year treatment period and were re-evaluated in a double-blind manner for this new analysis. Predefined endpoints for this evaluation were the rate of evolution of new lesions to persistent black holes and remyelinated lesions. The predefined statistical endpoints were at the rate of evolution of new lesions (NL) to persistent black holes (PBH) and remyelinated lesions (RL). New T1 gadolinium-enhancing or new T2 lesions were defined as NL in the first on-study Mill at month 2. […] Hypointense lesions at month 2 or 4 that were isointense at month 10 were RL. Relative Risk (RR) of NL evolution to PBH and RL per patient was analyzed using a general linear model with the error term from the Poisson distribution.
# activated microglia = details: dose-dependent; cited from earlier work
# [5] = tested on: animal model for Parkinson's disease; experiment: Animal model for Parkinson's disease; assay type: in vivo; details: present-tense example without data
# [6] = administered systemically; cited from earlier work
# [7] = tested on: rat animal model for Alzheimer's disease; experiment: Rat animal model for Alzheimer's disease; assay type: in vivo; details: present-tense example without data
# [8] = 30 mg (N = 94), 2 Years, p = 0.0832 vs Placebo to Active
# [9] = 60 mg (N = 98), 2 Years, p = 0.0516 vs Placebo to Active
# [10] = 2 Year Active (pooling of 30 mg and 60 mg dose groups), 2 Years, p = 0.0264 vs Placebo to Active
# [11] = Placebo to Active (to 30 mg/d), 2 Years (12 months placebo, 12 months drug)
# [12] = Placebo to Active (to 60 mg/d), 2 Years (12 months placebo, 12 months drug)
# [13] = Placebo to Active pooled (N = 100), 2 Years
structure (smiles),measurement,setting,value
"CC(C)C(=O)c1c(C(C)C)nn2ccccc12 [ibudilast, 3-isobutyryl-2-isopropylpyrazolo[1,5-a]pyridine]","Disability Progression, number of patients","[1]; 30 mg (N = 94), 1 Year",5
same,"Disability Progression, percent of patients","[1]; 30 mg (N = 94), 1 Year",5.3%
same,"Disability Progression, number of patients",[1]; [8],10
same,"Disability Progression, percent of patients",[1]; [8],(10.6%)
same,"Disability Progression, number of patients","[1]; 60 mg (N = 98), 1 Year",4
same,"Disability Progression, percent of patients","[1]; 60 mg (N = 98), 1 Year",4.1%
same,"Disability Progression, number of patients",[1]; [9],10
same,"Disability Progression, percent of patients",[1]; [9],10.2%
same,Disability progression (worsened ≥1.0 on EDSS for 4 mo) (ITT),"[1]; 60 mg/day, year 1 (Table 1), p=0.334 vs pbo","pbo - 8%, 60 mg - 4%"
same,Annualized relapse rate,"[1]; 60 mg/day, year 1, ITT, p=0.1106 vs pbo","pbo - 0.9, 60 mg - 0.7 (ITT)"
same,IDSS (AUC of change from baseline EDSS),"[1]; 60 mg/day, year 1, ITT, p=0.1761 vs pbo","pbo: −0.05, 60 mg: −0.16 (ITT)"
same,IDSS (AUC of change from baseline EDSS),"[1]; 60 mg/day, year 1, completers, p=0.0365 vs pbo","pbo: −0.05, 60 mg: −0.24 (completers)"
same,Annualized relapse rate,"[1]; 60 mg/day, year 1, completers, p=0.0752 vs pbo","pbo - 0.8, 60 mg - 0.6 (completers)"
same,"Time to first relapse (ITT), median","[1]; 60 mg/day, year 1, p=0.0438 vs pbo (pbo 244 days)",Median for 60 mg >1 year
same,EDSS (% worsened) (ITT),"[1]; 60 mg/day, year 1, p=0.1771 vs pbo","pbo - 30%, 60 mg - 21.4%"
same,% of subjects exacerbation-free for 1 year (ITT),"[1]; 60 mg/day, p=0.033 vs pbo","pbo - 41%, 60 mg - 56.1%"
same,"Disability Progression, number of patients",[1]; [10],20/194
same,"Disability Progression, percent of patients",[1]; [10],10.4%
same,Likelihood of disability progression (≥1.0 point increase in EDSS for 4 consecutive months),"[1]; 24 months of drug vs 12 months of drug, p=0.026",less likely
same,"Disability Progression, number of patients",[1]; [11],8/51
same,"Disability Progression, percent of patients",[1]; [11],(15.7%)
same,"Disability Progression, number of patients",[1]; [12],13/49
same,"Disability Progression, percent of patients",[1]; [12],(26.5%)
same,"Disability Progression, number of patients",[1]; [13],21/100
same,"Disability Progression, percent of patients",[1]; [13],21%
same,Decrease in the rate of sustained disability progression,"[1]; extended (at least about two years) administration, compared with patients treated for less than two years",about 50%
same,"Prolongation of time to relapse, average","[1]; extended (at least about two years) administration, compared with untreated patients",about 130 days
same,Average loss of brain volume,"[2]; 60 mg a day, 1-year treatment period, placebo 1.2%, p 0.0352",0.79%
same,Brain volume loss compared to the other treatment groups (cranial MRI),"[2]; 60 mg per day for 24 months, p=0.030",significantly less
same,Brain volume loss compared to placebo (cranial MRI),"[2]; 60 mg per day, after 12 months, p=0.04",significant reduction
same,Brain volume loss,[2]; extended (at least about two years) administration,reduction
same,Functional outcomes,[3],improvement
same,# Patients w. New Lesions at Month 2,[4]; 30 mg/day (n=94),64
same,Mean Proportion of Lesions Evolving to PBH,[4]; 30 mg/day,0.20
same,Median Proportion of Lesions Evolving to PBH,[4]; 30 mg/day,0.08
same,Relative Risk (for Evolution to PBH) vs. placebo,"[4]; 30 mg/day, p=0.074, listed as MN-166",0.735 and 0.74
same,# Patients w. New Lesions at Month 2,[4]; 60 mg/day (n=98),56
same,Mean Proportion of Lesions Evolving to PBH,[4]; 60 mg/day,0.16
same,Median Proportion of Lesions Evolving to PBH,[4]; 60 mg/day,0.04
same,Relative Risk (for Evolution to PBH) vs. placebo,"[4]; 60 mg/day, p=0.011",0.63
same,Formation of black holes on MRI,"[4]; first year of treatment, MS patients",decreased
same,Conversion of acute lesions to persistent black holes,[4]; overall benefit statement for extended administration,reduction
same,"Production of IL-10, NGF, GDNF and NT-4",activated microglia,enhance
same,"Production of nitric oxide (NO), reactive oxygen species, IL-1beta, IL-6 and TNF",activated microglia,suppress
same,Locomotion,[5],improvement
same,Blood-brain barrier crossing,[6],crosses the blood-brain barrier
same,Cognitive function,[7],improvement
